In ChEMBL document CHEMBL1201862, “PubChem BioAssay data set” (2004):
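Step 1: Grow cells in 96-well plates. Step 2: Expose to compound for 48 hours at 5 concentrations. Step 3: Interpolate endpoints linearly; if unreached, use highest concentration. At the GI50, growth is halved.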 Calls of active or inactive are those of the source. Cut-off read from the data, not from the text of the source: active = GI50 up to about 1.1 µM and inactive = higher.

Experiments:
Experiment in all cases: NCI-60 cell line screen, 48 h
[1] = test system: A498
[2] = test system: COLO 205
[3] = test system: SF-268
[4] = test system: MCF7
[5] = test system: NCI-H226
[6] = test system: HL-60
[7] = test system: RXF 393
[8] = test system: OVCAR-4
[9] = test system: TK-10
[10] = test system: SF-539
[11] = test system: BT-549
[12] = test system: HOP-62
[13] = test system: SK-MEL-5
[14] = test system: SR
[15] = test system: NCI/ADR-RES
[16] = test system: EKVX
[17] = test system: SW-620
[18] = test system: LOX IMVI
[19] = test system: SN12C
[20] = test system: SF-295
[21] = test system: NCI-H23
[22] = test system: OVCAR-3
[23] = test system: NCI-H460
[24] = test system: SK-OV-3
[25] = test system: HOP-92
[26] = test system: HCT-116
[27] = test system: RPMI-8226
[28] = test system: A549
[29] = test system: IGROV-1
[30] = test system: ACHN
[31] = test system: K562
[32] = test system: UO-31
[33] = test system: U-251
[34] = test system: CAKI-1
[35] = test system: HCT-15
[36] = test system: UACC-257
[37] = test system: HT-29
[38] = test system: 786-0
[39] = test system: UACC-62
[40] = test system: MOLT-4
[41] = test system: KM12
[42] = test system: CCRF-CEM
[43] = test system: HCC 2998
[44] = test system: T47D
[45] = test system: MDA-MB-231
[46] = test system: SNB-75
[47] = test system: Hs-578T
[48] = test system: OVCAR-5
[49] = test system: OVCAR-8
[50] = test system: DU-145
[51] = test system: MDA-MB-435
[52] = test system: SK-MEL-28
[53] = test system: MDA-N
[54] = test system: PC-3
[55] = test system: M14

Brc1ccc(-c2ccc(-c3ccc(-c4ccc(Br)s4)s3)s2)s1
GI50 [1]: > 100 µM (inactive)
GI50 [2]: > 100 µM (inactive)
GI50 [3]: > 100 µM (inactive)
GI50 [4]: > 100 µM (inactive)
GI50 [5]: 54.1 µM (inactive)
GI50 [6]: > 100 µM (inactive)
GI50 [7]: > 100 µM (inactive)
GI50 [8]: > 100 µM (inactive)
GI50 [9]: > 100 µM (inactive)
GI50 [10]: > 100 µM (inactive)
GI50 [11]: > 100 µM (inactive)
GI50 [12]: > 100 µM (inactive)
GI50 [13]: > 100 µM (inactive)
GI50 [14]: > 100 µM (inactive)
GI50 [15]: > 100 µM (inactive)
GI50 [16]: > 100 µM (inactive)
GI50 [17]: > 100 µM (inactive)
GI50 [18]: > 100 µM (inactive)
GI50 [19]: > 100 µM (inactive)
GI50 [20]: > 100 µM (inactive)
GI50 [21]: > 100 µM (inactive)
GI50 [22]: > 100 µM (inactive)
GI50 [23]: > 100 µM (inactive)
GI50 [24]: > 100 µM (inactive)
GI50 [25]: > 100 µM (inactive)
GI50 [26]: > 100 µM (inactive)
GI50 [27]: > 100 µM (inactive)
GI50 [28]: > 100 µM (inactive)
GI50 [29]: > 100 µM (inactive)
GI50 [30]: > 100 µM (inactive)
GI50 [31]: > 100 µM (inactive)
GI50 [32]: > 100 µM (inactive)
GI50 [33]: > 100 µM (inactive)
GI50 [34]: > 100 µM (inactive)
GI50 [35]: > 100 µM
GI50 [36]: > 100 µM (inactive)
GI50 [37]: > 100 µM (inactive)
GI50 [38]: > 100 µM (inactive)
GI50 [39]: > 100 µM (inactive)
GI50 [40]: > 100 µM (inactive)
GI50 [41]: > 100 µM (inactive)
GI50 [42]: > 100 µM (inactive)
GI50 [43]: > 100 µM (inactive)
GI50 [44]: > 100 µM (inactive)
GI50 [45]: > 100 µM (inactive)
GI50 [46]: > 100 µM (inactive)
GI50 [47]: > 100 µM (inactive)
GI50 [48]: > 100 µM (inactive)
GI50 [49]: > 100 µM (inactive)
GI50 [50]: > 100 µM (inactive)
GI50 [51]: > 100 µM (inactive)
GI50 [52]: > 100 µM (inactive)
GI50 [53]: > 100 µM (inactive)
GI50 [54]: > 100 µM (inactive)
GI50 [55]: > 100 µM (inactive)
